In patent US9708314B2, “Heterocyclic amide compound” (NISSAN CHEMICAL INDUSTRIES, LTD., priority 2013, dated 2017):

What was measured:
Type in all cases: in vivo
[1] = test system: transplanted Oryza sativa; experiment: Test Example 1: effect on crop, application before weed generation in submerged conditions; settings: Application herbicide amount 320 g/ha; Seventeenth Table
Procedure, shortened: (§1)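 Pre-emergence water-surface application under 4 cm flooding, same day as sowing, with rice transplanted at 2.5 leaf stage. Dose given as g/ha. Plants grown at 25° C. to 30° C. and rated three weeks later on a 0 (≤5%) to 5 (≥90%) herbicidal-ratio scale.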

[2] = test system: Echinochloa oryzacola Vasing.; experiment: Test Example 2: herbicidal activity, application during weed generation in submerged conditions; settings: Eighteenth Table; application herbicide amount 320 g/ha
Procedure, shortened: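 Scored three weeks post-application on a 0–5 scale (5: ≥90% herbicidal ratio, almost withered; 0: ≤5%). Plants raised from mixed-sown seed in submerged alluvial soil (4 cm water), 25–30 °C greenhouse; water-diluted emulsion applied onto water surface at one- to two-leaf stage, dose in g/ha.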

Avena fatua = experiment: Test Example 4: herbicidal effect by application to foliage (diluvial soil, plastic box); settings: for I (Avena fatua) herbicidal effect grade: Application herbicide amount 320 g/ha, foliage application; for I: herbicidal effect on Avena fatua: application to foliage, application herbicide amount 320 g/ha
Procedure, shortened: (§2)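 Seeds sown in sterilized diluvial soil, covered ~1.5 cm, grown 14 days in greenhouse at 25° C. to 30° C. Emulsion formulation diluted in water to set rate (g/ha) and sprayed onto stems and leaves. Effect scored visually 3 weeks later on 0–5 scale (5 = ≥90% herbicidal ratio, 0 = ≤5%).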

[3] = test system: Echinochloa crus-galli var. crus-galli; experiment: as above; settings: for H (Echinochloa crus-galli var. crus-galli) herbicidal effect grade: Application herbicide amount 320 g/ha, foliage application; for H: herbicidal effect on Echinochloa crus-galli var. crus-galli: application to foliage, application herbicide amount 320 g/ha
Procedure, shortened: as §2

Galium spurium = experiment: as above; settings: for Q (Galium spurium) herbicidal effect grade: Application herbicide amount 320 g/ha, foliage application; for Q: herbicidal effect on Galium spurium: application to foliage, application herbicide amount 320 g/ha
Procedure, shortened: as §2

Lolium multiflorum Lam. = experiment: as above; settings: for K (Lolium multiflorum Lam.) herbicidal effect grade: Application herbicide amount 320 g/ha, foliage application; for K: herbicidal effect on Lolium multiflorum Lam.: application to foliage, application herbicide amount 320 g/ha
Procedure, shortened: as §2

[4] = test system: Echinochloa oryzacola Vasing.; experiment: Test Example 1: herbicidal activity, application before weed generation in submerged conditions; settings: Application herbicide amount 320 g/ha; Seventeenth Table
Procedure, shortened: as §1

Monochoria vaginalis = experiment: as above; settings: Application herbicide amount 320 g/ha; Seventeenth Table
Procedure, shortened: as §1

Scirpus juncoides = experiment: as above; settings: Application herbicide amount 320 g/ha; Seventeenth Table
Procedure, shortened: as §1

Structure (SMILES)	a: transplanted Oryza sativa (effect on crop grade) [1]	A (Echinochloa oryzicola Vasing.) herbicidal ratio grade [2]	I (Avena fatua) herbicidal effect grade (Avena fatua)	H (Echinochloa crus-galli var. crus-galli) herbicidal effect grade [3]	Q (Galium spurium) herbicidal effect grade (Galium spurium)	K (Lolium multiflorum Lam.) herbicidal effect grade (Lolium multiflorum Lam.)	A: Echinochloa oryzicola Vasing. (herbicidal effect grade) [4]	C: Monochoria vaginalis (herbicidal effect grade) (Monochoria vaginalis)	B: Scirpus juncoides (herbicidal effect grade) (Scirpus juncoides)	I: herbicidal effect on Avena fatua (Avena fatua)	H: herbicidal effect on Echinochloa crus-galli var. crus-galli [3]	Q: herbicidal effect on Galium spurium (Galium spurium)	K: herbicidal effect on Lolium multiflorum Lam. (Lolium multiflorum Lam.)
Cc1nnc(NC(=O)c2ccc(C(F)(F)F)n3c(N4CCS(=O)(=O)CC4)nnc23)o1 [1-120]	3 (Herbicidal ratio of 40% or more and less than 70%)	3 (Herbicidal ratio of 40% or more and less than 70%)	3 (Herbicidal ratio of 40% or more and less than 70%)	5 (Herbicidal ratio of 90% or more (almost completely withered))	5 (Herbicidal ratio of 90% or more (almost completely withered))	3 (Herbicidal ratio of 40% or more and less than 70%)	5 (Herbicidal ratio of 90% or more (almost completely withered))	1 (Herbicidal ratio of 5% or more and less than 20%)	3 (Herbicidal ratio of 40% or more and less than 70%)				
CCN(CC)c1nnc2c(C(=O)Nc3nnco3)ccc(C(F)(F)F)n12 [1-138]	2 (Herbicidal ratio of 20% or more and less than 40%)	3 (Herbicidal ratio of 40% or more and less than 70%)	2 (Herbicidal ratio of 20% or more and less than 40%)	5 (Herbicidal ratio of 90% or more (almost completely withered))	2 (Herbicidal ratio of 20% or more and less than 40%)	1 (Herbicidal ratio of 5% or more and less than 20%)	5 (Herbicidal ratio of 90% or more (almost completely withered))	4 (Herbicidal ratio of 70% or more and less than 90%)	5 (Herbicidal ratio of 90% or more (almost completely withered))				
Cc1nnc(NC(=O)c2ccc(C(F)(F)F)n3c(N(C)CCC#N)nnc23)o1 [1-153]	2 (Herbicidal ratio of 20% or more and less than 40%)	3 (Herbicidal ratio of 40% or more and less than 70%)	3 (Herbicidal ratio of 40% or more and less than 70%)	5 (Herbicidal ratio of 90% or more (almost completely withered))	4 (Herbicidal ratio of 70% or more and less than 90%)	1 (Herbicidal ratio of 5% or more and less than 20%)	3 (Herbicidal ratio of 40% or more and less than 70%)	4 (Herbicidal ratio of 70% or more and less than 90%)	3 (Herbicidal ratio of 40% or more and less than 70%)				
Cc1nnc(NC(=O)c2ccc(C(F)(F)F)n3c(SCC4CCCO4)nnc23)o1 (stereo not drawn) [1-116]	0 (Herbicidal ratio of 5% or less (almost no effect))	3 (Herbicidal ratio of 40% or more and less than 70%)	3 (Herbicidal ratio of 40% or more and less than 70%)	5 (Herbicidal ratio of 90% or more (almost completely withered))	3 (Herbicidal ratio of 40% or more and less than 70%)	1 (Herbicidal ratio of 5% or more and less than 20%)	5 (Herbicidal ratio of 90% or more (almost completely withered))	2 (Herbicidal ratio of 20% or more and less than 40%)	4 (Herbicidal ratio of 70% or more and less than 90%)				
COCCN(C)c1nnc2c(C(=O)Nc3nnc(C)o3)ccc(C(F)(F)F)n12 [1-129]	1 (Herbicidal ratio of 5% or more and less than 20%)	3 (Herbicidal ratio of 40% or more and less than 70%)	2 (Herbicidal ratio of 20% or more and less than 40%)	5 (Herbicidal ratio of 90% or more (almost completely withered))	0 (Herbicidal ratio of 5% or less (almost no effect))	1 (Herbicidal ratio of 5% or more and less than 20%)	5 (Herbicidal ratio of 90% or more (almost completely withered))	3 (Herbicidal ratio of 40% or more and less than 70%)	4 (Herbicidal ratio of 70% or more and less than 90%)				
Cn1nnnc1NC(=O)c1ccc(C(F)(F)F)n2c(-c3ccccc3)nnc12 [2-007]	3 (Herbicidal ratio of 40% or more and less than 70%)	4 (Herbicidal ratio of 70% or more and less than 90%)					5 (Herbicidal ratio of 90% or more (almost completely withered))	5 (Herbicidal ratio of 90% or more (almost completely withered))	5 (Herbicidal ratio of 90% or more (almost completely withered))	3 (Herbicidal ratio of 40% or more and less than 70%)	5 (Herbicidal ratio of 90% or more (almost completely withered))	1 (Herbicidal ratio of 5% or more and less than 20%)	2 (Herbicidal ratio of 20% or more and less than 40%)
CC(=O)CSc1nnc2c(C(=O)Nc3nnc(C)o3)ccc(C(F)(F)F)n12 [1-125]	0 (Herbicidal ratio of 5% or less (almost no effect))	0 (Herbicidal ratio of 5% or less (almost no effect))	1 (Herbicidal ratio of 5% or more and less than 20%)	4 (Herbicidal ratio of 70% or more and less than 90%)	0 (Herbicidal ratio of 5% or less (almost no effect))	0 (Herbicidal ratio of 5% or less (almost no effect))	0 (Herbicidal ratio of 5% or less (almost no effect))	1 (Herbicidal ratio of 5% or more and less than 20%)	3 (Herbicidal ratio of 40% or more and less than 70%)				
Cn1nnnc1NC(=O)c1ccc(C(F)(F)F)n2c(Br)nnc12 [2-009]	0 (Herbicidal ratio of 5% or less (almost no effect))	3 (Herbicidal ratio of 40% or more and less than 70%)					3 (Herbicidal ratio of 40% or more and less than 70%)	4 (Herbicidal ratio of 70% or more and less than 90%)	3 (Herbicidal ratio of 40% or more and less than 70%)	3 (Herbicidal ratio of 40% or more and less than 70%)	5 (Herbicidal ratio of 90% or more (almost completely withered))	4 (Herbicidal ratio of 70% or more and less than 90%)	2 (Herbicidal ratio of 20% or more and less than 40%)
Cc1nnc(NC(=O)c2ccc(C(F)(F)F)n3c(SCC4CC4)nnc23)o1 [1-115]	0 (Herbicidal ratio of 5% or less (almost no effect))	3 (Herbicidal ratio of 40% or more and less than 70%)	2 (Herbicidal ratio of 20% or more and less than 40%)	5 (Herbicidal ratio of 90% or more (almost completely withered))	3 (Herbicidal ratio of 40% or more and less than 70%)	1 (Herbicidal ratio of 5% or more and less than 20%)	5 (Herbicidal ratio of 90% or more (almost completely withered))	3 (Herbicidal ratio of 40% or more and less than 70%)	4 (Herbicidal ratio of 70% or more and less than 90%)				
